Laboratory results reported in patent US20230241014A1, “MEK-INHIBITORS FOR THE TREATMENT OR PREVENTION OF CORONAVIRUS INFECTIONS AND/OR COVID-19 CYTOKINE STORM” (priority 2020, published 2023).
Where two headings read alike, the source gives them in different places.

Tests used:
ACE2 = ACE2 expression in Calu-3 cells (immunofluorescence microscopy, WES); format: cell-based, Homo sapiens; settings: 100 μM, 24 h
Method: After this, it was tested whether ACE2 expression is reduced in cells after ATR-002 treatment. Calu-3 cells were treated with ATR-002 for 24 hours and the results were analysed via immunofluorescence microscopy and WES technology. Specifically, Calu-3 cells were seeded on glass cover slips in 24-well plates, 1×10^5 cells per well and incubated for 48 h at 37° C., 5% CO2 After washing the cells with medium (IMDM with 10% FBS and 1% P/S), 1 mL of 100 μM ATR-002 in medium or 1 mL 1% DMSO in medium (solvent control) were added to the wells and incubated for 24 h at 37° C., 5% CO2.
Then the wells were washed once with PBS and fixed with 300 μL/well 4% PFA in PBS for 10 minutes at room temperature. […] The slides were let dry at 4° C. in the dark and then analysed using a confocal laser scanning microscope (LSM800, Zeiss).

pERK1/2 = test: Wes analysis of ERK phosphorylation in SARS-CoV-2 infected Caco-2 cells; format: cell-based, Homo sapiens; settings: CaCo-2 cells infected SARS-CoV-2 (MOI 0.1); 0.098-100 μM, 24 h
Method: For the Virus yield reduction assay a 24-well plate (Greiner Bio-One, Cat. 662-160) with 95% confluent Caco-2 cells was prepared. The wells were washed once with Caco-2 infection medium DMEM (Gibco, Cat. 41965-039) supplemented with 5% FCS (Capricorn, Cat. FBS-12A), 1% Penicillin/Streptomycin, (Sigma Aldrich, Cat. P4333) and 1% Non-essential amino acids (NEAA) (Merck, Cat. K 0293). Cells were infected with SARS-CoV-2 (MOI 0.1) for 1 h in 200 μL Caco-2 infection medium per well. Afterwards the Virus inoculum was removed completely and cells were treated with 1 mL per well with different concentrations of ATR-002 (100 μM, 50 μM, 25 μM, 12.5 μM, 6.25 μM, 3.125 μM, 1.56 μM, 0.78 μM, 0.39 μM, 0.195 μM, 0.098 μM, 0 μM) in Caco-2 infection medium with 1% DMSO for 24 h at 37° C., 5% CO2. […]
Wes™ capillary electrophoresis by ProteinSimple® was used to identify and quantify pERK1/2, ERK1/2 and SARS-CoV-2 Nucleoprotein. Cell lysates were diluted with 0.1×Sample Buffer (ProteinSimple, Abingdon, Oxford, UK) to approximately 50 ng total protein per lane and analyzed using specific antibodies. […] The anti-rabbit secondary antibody (ProteinSimple, Cat. DM-001) and anti-mouse secondary antibody (ProteinSimple, Cat. DM-002) and all other reagents for WES analysis were also purchased from ProteinSimple and were ready to use.

SARS-CoV-2 (FI) [1] = format: cell-based
SARS-CoV-2 (FI) [2] = format: cell-based; settings: primary human ALI cultures, MOI 1.0, 50 μM and 100 μM, three cultures
[3] = system: SARS-CoV-2 viral gene RdRP; format: cell-based; settings: Vero cells, MOI 0.01, 50 μM, 24, 36 and 48 hpi
[4] = system: MxA and IL8 mRNA expression; test: poly (I:C) stimulation of A549 cells, MxA and IL8 mRNA; settings: A549, 100 ng/ml poly (I:C), 24 h

## O=C(O)c1ccc(F)c(F)c1Nc1ccc(I)cc1Cl [ATR-002, 2-(2-chloro-4-iodophenylamino)-N-3,4-difluoro benzoic acid]
ACE2
  ACE2 on Calu-3 cells: reduction of ACE2
pERK1/2
  inhibition of ERK (phosphorylation): seen at concentrations of 50 and 100 μM
SARS-CoV-2 (FI) [1]; A549-ACE2/TMPRSS2, MOI 0.001, 100 μM
  production of progeny viral particles: reduced the production of progeny viral particles
SARS-CoV-2 (FI) [1]; A549-ACE2/TMPRSS2, MOI 0.01, 100 μM
  production of progeny viral particles: did not affect the production of progeny viral particles
SARS-CoV-2 (FI) [1]; Calu-3, MOI 0.001, 100 μM
  production of progeny viral particles: reduced the production of progeny viral particles
SARS-CoV-2 (FI) [2]
  production of progeny viral particles: completely blocked the production of progeny viral particles
[3]
  SARS-CoV-2 viral gene RdRP genome copies: confirmed
[4]
  MxA mRNA expression (anti-viral interferon system): constant expression of MxA mRNA
[4]; even low concentrations
  IL8 mRNA expression: strong reduction
